Tests used:
mice CD-1 males = assay: Stimulating activity: effect on loss of straightening reflex (sleep) induced by ethanol in mice; format: in vivo; conditions: caffeine 60 mg/kg
Source text: The antioxidant and anti-radical activity was studied on decoctions 1 and 2, respectively, by testing the decolorization of the radical cation ABTS^• (2.2′-azino-bis-3-ethylbenzothiazoline-6-sulphonic acid) (Re et al.—Free Rad. Biol. Med. 26: 1231, 1999) and by testing the neutralization of the radical 1,1-diphenyl-2-picrylhydrazyl (DPPH^•) (Brand-Williams et al.—Food Sci. Technol. 28: 25, 1995). Finally, decoctions 1 and 2 were studied for potential stimulating activity, verifying the effect on sleep induced by ethanol in mice according to the method reported by Yacoubi et al. (Yacoubi et al. —Neuropharmacology 45: 977, 2003).
The stimulating activity of the decoctions of olive leaves was evaluated on the basis of the reduction of the hypnotic effect induced by ethanol in the mice (Yacoubi et al.—Neuropharmacology 45: 977, 2003). The animals were housed in groups of 5 and kept for at least a week in the same place where the test was carried out, at a constant temperature (23±1° C.) and relative humidity (50-60%), with a fixed artificial light cycle (07.00-19.00). The experiment was carried out in conformity with the laws in force that regulate the use of animals for scientific purposes (Italian Legislative Decree 116 of 27 Jan. 1992 and the Directives of the European Communities Council of 24 Nov. 1986/86/609/EEC).
At the moment of the experiment, each animal was positioned individually in a cage. The lyophilized decoctions, dissolved in water, were administered to the mice (dose: 120 mg/kg; volume of solution administered: 10 ml/kg) by means of gastric intubation, 30 minutes before the inter-peritoneal injection of an aqueous composition of ethanol at 20% (v/v; 4 g/kg). The control animals were administered 10 ml/kg of physiological solution. The induction of ethanol induced sedation in the animals, with the loss of the straightening reflex. In every animal both the duration of the latency phase that elapsed between the injection of the ethanol and the loss of the straightening reflex, and the duration of the loss of the straightening reflex were measured. The stimulating activity was evaluated on the basis of both the increase in the latency phase and also on the reduction in the duration of the loss of the straightening reflex. The effect was compared to that of caffeine, at a dose of 60 mg/kg. Each treatment group consisted of 10 animals.
The values of IC50 were calculated on the basis of the linear regression of the straight lines that put the logarithm of the concentrations tested in relation to the reduction of the absorbance measured, using the appropriate function of an electronic spreadsheet. The in vivo data were analyzed according to the Student's t-test, accepting as significant the values of p<0.05.
The stimulating activity of decoctions 1 and 2 was evaluated in the mice, after oral administration of 120 mg/kg of lyophilized decoction (corresponding to 9.6 and 11.9) ml of decoction 1 and 2 liquid/kg), verifying the effect on the loss of straightening induced by the intraperitoneal injection of ethanol (4 g/kg). The parameters evaluated were the increase in the latency phase between the ethanol injection and the loss of the straightening reflex, and the duration of the loss of the straightening reflex (interval between the loss and the re-acquisition of the straightening reflex). As a reference compound, caffeine was used at a dose of 60 mg/kg (corresponding to an average dose of coffee equal to about 40 ml/kg).

[1] = Antioxidant activity: decoloring test of the cationic radical ABTS•+; conditions: mg lyophilized preparation per ml; absorbance at 734 nm; four determinations
Experimental: Biol. Med. 26: 1231, 1999) and by testing the neutralization of the radical 1,1-diphenyl-2-picrylhydrazyl (DPPH^•) (Brand-Williams et al.—Food Sci. Technol. 28: 25, 1995). […] (Yacoubi et al. —Neuropharmacology 45: 977, 2003). The antioxidant activity was evaluated according to the method reported by Re and collaborators (Re et al.—Free Rad. Biol. Med. 26: 1231, 1999). […] In the presence of an antioxidant the ABTS^•+ is reduced to colorless ABTS, determining a decoloring of the solution in which it is dissolved, which can be measured by spectrophotometry quantifying the absorbance at 734 nm. […] The antioxidant activity, expressed as IC50, was compared to that of Trolox, a similar water-soluble to vitamin E, and to that of an infusion of green tea, prepared with 10 g of leaves in 1 liter of water (from which 4.385 g of lyophilized infusion were obtained). For every sample four determinations were carried out and the result was expressed as average±standard deviation of the analyses done. The values of IC50 were calculated on the basis of the linear regression of the straight lines that put the logarithm of the concentrations tested in relation to the reduction of the absorbance measured, using the appropriate function of an electronic spreadsheet. The in vivo data were analyzed according to the Student's t-test, accepting as significant the values of p<0.05. […]

[2] = mice, oral 30 min before ethanol 4 g/kg i.p., decoctions 120 mg/kg lyophilized, n = 10
[3] = mice, oral, decoctions 120 mg/kg, ethanol 4 g/kg i.p.

SMILES | reduction in the duration of the loss of the straightening reflex (mice CD-1 males; given as positive reduction, decoctions 120 mg/kg) [%] | Duration Average ± E.S. (of the loss of the straightening reflex) (mice CD-1 males; [2]) [min] | Latency Average ± E.S. (between ethanol injection and loss of the straightening reflex) (mice CD-1 males; [2]) [s] | Duration Difference (%) with respect to the controls (mice CD-1 males; [3]) [%] | Latency Difference (%) with respect to the controls (increase in the latency period) (mice CD-1 males; [3]) [%] | Lyophilized Decoction IC50 Average ± D.S. (antioxidant activity, ABTS) [1] [µg/mL]
Cn1c(=O)c2c(ncn2C)n(C)c1=O [Caffeine, caffeine] | 43 | 23.5 ± 3.3 | 215.7 ± 18.2 | −43 | 48 | –
Cc1c(C)c2c(c(C)c1O)CCC(C)(C(=O)O)O2 (stereo not drawn) [Trolox] | – | – | – | – | – | 30

Source: US20170080040A1, “DECOCTION OF OLIVE LEAVES” (priority 2014, published 2017)
